In patent US10137171B2, “Methods of treatment using a pentapeptide derived from the C-Terminus of Glucagon-Like Peptide 1 (GLP-1)” (The General Hospital Corporation, priority 2011, dated 2018):
“Also recorded” adds a separate entry of the source. Where no end group is shown, it is not given here.

Assays:
diet-induced obese mice = experiment: Continuous osmopump infusion in very high-fat diet-induced obese mice: body weight, energy intake, Feed Efficiency; type: in vivo, mouse
Procedure: The data encompass twelve weeks, from week 2 to week 14 of continuous infusions of control vehicle and GLP-1(32-36)amide. GLP-1(32-36)amide was administered to mice via mini-osmopumps (Alzet #1004) at a rate of 40 nanomoles/Kg body weight/24 hours. Male C57bl/6j mice were placed on a high fat diet (Research Diets, #D12492, 60 kcal % fat) at six weeks of age and continued for 17 weeks before starting osmopump infusions at age 23 weeks. 1A. Line graph showing time-dependent changes in body weight (BW) over fourteen weeks of infusions of control vehicle and pentapeptide GLP-1(32-36)amide. (*) p<0.05 versus vehicle control; (**) p<0.04 versus vehicle control; (***) p<0.034; (#) p<0.01; (##) p<0.004; (###) p<0.0006, 0.0007; (####) p<0.0001. 1B. N=six mice per group. Values are means+/−SEMs. *p<0.013 peptide vs. vehicle. At week two of infusions of vehicle and pentapeptide the mice weighed 37.2 and 38.2 gms (averages of six mice), respectively. N=six mice per group.
FIG. 3 is a bar graph showing feed efficiency at the end of 12 week infusion. GLP-1(32-36)amide infusions in diet-induced obese mice lowers the Feed Efficiency index. The data are the means+/−SEMs (*p<0.06 pentapeptide vs. vehicle) of the values calculated from the […] period of infusions of control vehicle and GLP-1(32-36)amide shown in FIG. 4. The Feed efficiency (FE) is a calculation of the body weight (gms) divided by the energy intake kcal) in the food consumed. […] Basal energy expenditure in mice treated with pentapeptide is increased compared to mice treated with control vehicle. N=6 mice per group.
Male C57bl/6 mice at […] were placed on a very high-fat diet (VHFD, 60% fat, Research Diets) for 17 weeks. At week 17 the mice on the high-fat diet, corresponding to 23 weeks of age, mini-osmopumps containing either vehicle or GLP-1(32-36)amide were implanted subcutaneously for delivery of peptide or vehicle over 16 weeks. Forty nanomoles (20 micrograms) of GLP-1(32-36) was diluted in saline containing 0.1% human serum albumin and were infused at a rate of forty nanomoles/kgBW/day for 16 weeks to achieve an estimated concentration of approximately 100 pM similar to that reported by infusions of GLP-1(7-36)amide. For infusions longer than 4 weeks additional osmopumps with peptide were implanted at the end of each 4 weeks infusion. Body weights were recorded weekly. Food consumption was assessed every 3 to 4 days by weight. Energy intake (kcal/gm BW/week) and Feed Efficiency Index (FEI) were evaluated during the infusions of vehicle or peptide. The latter provides a measure of the efficiency of caloric conversion to body weight and it is calculated by determining the grams of body weight gain per cage/Kcal of food consumed per cage, [21]. There was no observable change in the activities of the mice amongst the various experimental groups. Mouse care was conducted under approval by the MGH Institutional Animal Care Use Committee.

[1] = test system: insulin-resistant isolated mouse hepatocytes; experiment: ROS formation assay (isolated primary hepatocytes); type: cell-based; settings: 30 mM glucose 24 h; peptide 10 pM, 100 pM and 100 nM (FIG. 9A)
Procedure: FIG. 9A is a bar graph showing suppression of the production of reactive oxygen species (ROS) by the pentapeptide GLP-1(32-36)amide in insulin-resistant isolated mouse hepatocytes. Hepatocytes were rendered insulin-resistant by their pre-incubation in 30 mM glucose. Primary hepatocytes from C57BL/6J mice were seeded at 2×10^5 cell per well in twelve-well plates and treated for 24 h with 30 mM glucose in the absence of presence of GLP-1(32-36)amide (10 pM, 100 pM and 100 nM). To measure ROS levels cells were washed twice in HBSS (Hanks' Balance Salt Solution) and incubated with 10 uM 5-(and 6)-carboxy-2′,7′-dichlorohydro-fluorescein diacetate (CM-H2DCFDA) (Molecular Probes) for 45 minutes. The media were removed and cells were lysed. ROS was measured in the cell lysates using a spectrofluorometer (485 nm/535 nm). Data were normalized to values obtained from untreated controls. The data shown are the means of two independent hepatocyte isolations+/−SEMs.
Primary hepatocytes from diet-induced obese (DIO) and C57BL/6J mice were seeded in 12-well plates at a density of 2×10^5/well for 24 h. C57BL/6J hepatocytes were treated with 30 mM glucose in the absence or presence of GLP-1(32-36)amide for 20 to 24 h and compared to DIO hepatocytes treated with GLP-1(32-36)amide. […] ROS was measured in the cell lysates using a spectrofluorometer (485 nm/535 nm). […]

LVKGRamide (LVKGR-NH2) [GLP-1(32-36)amide, pentapeptide derived from the C-terminus of the glucoincretin hormone GLP-1]
average weekly change in body weight gain, less than control vehicle (diet-induced obese mice; VHFD mice, 40 nanomoles/kg BW/day s.c. osmopump, measured over ten weeks (FIG. 1B)): 50%
body weight at week two of infusions (diet-induced obese mice; VHFD mice, average of six mice, vehicle 37.2): 38.2 gms
time at which inhibition of weight gain reached statistical significance (diet-induced obese mice; VHFD mice, continuous infusion 40 nanomoles/kg BW/day (FIG. 1A)): by week five; also recorded: as early as five weeks
energy intake (food intake) (diet-induced obese mice; VHFD mice, ten weeks of infusion, vehicle 1.11±0.025): 1.15±0.030 Kcal/g body weight/week
Feed Efficiency decrease compared to vehicle (diet-induced obese mice; VHFD obese mice (FIG. 3)): approximately 50%
Feed Efficiency index (effect in words) (diet-induced obese mice; end of 12 week infusion, p<0.06 vs vehicle (FIG. 3)): lowers
body weights decreased compared to vehicle control (diet-induced obese mice; end of the sixteen week infusion, high fat diet-induced obese mice): 50%
ROS levels [1]: prevented the rise in ROS levels; also recorded: suppression
